What was measured:
HEY cells [1] = experiment: microarray profiling (Affymetrix HG-U133 Plus 2.0) of miR-429 transfected HEY cells; assay type: cell-based, human; conditions: for Fold-change: miR-429 transfected HEY cells
Experimental: 6×10^4 cells per well were seeded in 24-well plates. After 24 h, cells were transfected with 30 nM of miR-429 and miR-320 miRNA oligonucleotides (Ambion, Austin, Tex.) using Lipofectamine 2000 reagent (Invitrogen, Carlsbad, Calif.). The Ambion Pre-miRNA Precursor Negative Control was used as a control. Three days after transfection, cells were split and transfected again. This process was repeated every 3 days until 21 days when cells were assayed for response.
Microarray analyses were performed using the Affymetrix system (HG-U133 Plus 2.0; Santa Clara, Calif.) as previously described [Bowen et al., BMC Med Genomics 2009, 2:71]. Briefly, the expression data were analyzed using MAS 5.0 Statistical Algorithm encoded in the Affymetrix Expression Console application. The expression values were normalized across samples by Z-score calculation using Spotfire Decision Site software. […] Gene enrichment analyses were carried out using GeneGO (http://www.genego.com/) gene ontology software.

HEY cells [2] = experiment: serum-induced invasion through a matrigel layer; assay type: cell-based, human; conditions: miR-429 transfected HEY cells vs negative control
Experimental: For the migration and invasion assays, 2.5×10^3 overnight serum starved cells in serum-free media were added to the top chambers of trans-well plates (8 μm pore size; BD, Franklin Lakes, N.J.) and media containing 10% fetal calf serum (FCS) were added to the bottom chambers. After 8-12 h, the non-migrating (top) cells were removed and the invading (bottom) cells were counted. All assays were done in triplicate. For the wound-healing assay, 2.5×10^5 cells were seeded into six-well plates. After 24 h, a wound was incised, detached cells removed and fresh media added. Photos were taken after 8 hrs to monitor the invasion of cells into the wounded area.
To further explore the effects of ectopic expression of miR-429 in HEY cells, we looked for changes in cellular functions frequently associated with EMT. For example, ovarian and other types of cancer cells undergoing EMT typically display increased motility/migration and invasiveness. […] Relative invasiveness was also measured by monitoring serum-induced invasion through a matrigel layer.

[3] = miR-429 transfected cells vs controls, p<0.015, fold change 1.5

## miR-429: miR-200 family member; mature miRNA UAAUACUGUCUGGUAAAACCGU (SEQ ID NO: 6); miRNA oligonucleotide (Ambion) transfected at 30 nM (listed as RNA, chemistry not given here; listed as Homo sapiens) [miR-200 family member; miRNA oligonucleotide (Ambion) transfected at 30 nM]
HEY cells [1]; gene LOC148987
  Fold change (miR-429 transfected HEY cells relative to negative controls): −3.07
HEY cells [1]; gene LOC158381
  Fold change (miR-429 transfected HEY cells relative to negative controls): −7.31
HEY cells [1]; gene LOC284561
  Fold change (miR-429 transfected HEY cells relative to negative controls): −38.32
HEY cells [1]; gene LOC286178
  Fold change (miR-429 transfected HEY cells relative to negative controls): −10.56
HEY cells [1]; gene LOC339290
  Fold-change: −1.87
HEY cells [1]; gene LOC401497
  Fold change (miR-429 transfected HEY cells relative to negative controls): −9.19
HEY cells [1]; gene LOC439949
  Fold change (miR-429 transfected HEY cells relative to negative controls): −2.48
HEY cells [1]; gene LRP4
  Fold change (miR-429 transfected HEY cells relative to negative controls): −2.66
HEY cells [1]; gene MARS
  Fold change (miR-429 transfected HEY cells relative to negative controls): −6.59
HEY cells [1]; gene MARS2
  Fold change (miR-429 transfected HEY cells relative to negative controls): −2.50
HEY cells [1]; gene MERTK
  Fold change (miR-429 transfected HEY cells relative to negative controls): −3.03
HEY cells [1]; gene MGC16121
  Fold change (miR-429 transfected HEY cells relative to negative controls): −3.46
HEY cells [1]; gene MRAP
  Fold change (miR-429 transfected HEY cells relative to negative controls): −3.05
HEY cells [1]; gene NAV3
  Fold change (miR-429 transfected HEY cells relative to negative controls): −4.35
HEY cells [1]; gene NOC2L
  Fold change (miR-429 transfected HEY cells relative to negative controls): −26.91
HEY cells [1]; gene OSTM1
  Fold change (miR-429 transfected HEY cells relative to negative controls): −4.35
HEY cells [1]; gene PAPPA2
  Fold change (miR-429 transfected HEY cells relative to negative controls): −23.75
HEY cells [1]; gene PCK2
  Fold change (miR-429 transfected HEY cells relative to negative controls): −4.44
HEY cells [1]; gene PCOTH
  Fold change (miR-429 transfected HEY cells relative to negative controls): −13.93
HEY cells [1]; gene PHGDH
  Fold change (miR-429 transfected HEY cells relative to negative controls): −3.78
HEY cells [1]; gene PITX2
  Fold change (miR-429 transfected HEY cells relative to negative controls): −2.45
HEY cells [1]; gene PRTG
  Fold-change: −1.61
HEY cells [1]; gene PSAT1
  Fold change (miR-429 transfected HEY cells relative to negative controls): −6.92
HEY cells [1]; gene PTPN13
  Fold change (miR-429 transfected HEY cells relative to negative controls): −3.10
HEY cells [1]; gene PYGO1
  Fold change (miR-429 transfected HEY cells relative to negative controls): −3.61
HEY cells [1]; gene RDH10
  Fold-change: −2.08
HEY cells [1]; gene RGMB
  Fold change (miR-429 transfected HEY cells relative to negative controls): −2.89
HEY cells [1]; gene RPL22L1
  Fold change (miR-429 transfected HEY cells relative to negative controls): −2.45
HEY cells [1]; gene SENP5
  Fold-change: −1.80
HEY cells [1]; gene SESN2
  Fold change (miR-429 transfected HEY cells relative to negative controls): −3.61
HEY cells [1]; gene SGSH
  Fold change (miR-429 transfected HEY cells relative to negative controls): −2.57
HEY cells [1]; gene SH3PXD2B
  Fold change (miR-429 transfected HEY cells relative to negative controls): −5.13
HEY cells [1]; gene SHANK2
  Fold change (miR-429 transfected HEY cells relative to negative controls): −10.85
HEY cells [1]; gene SHMT2
  Fold-change: −2.04
HEY cells [1]; gene SLC1A4
  Fold change (miR-429 transfected HEY cells relative to negative controls): −4.32
HEY cells [1]; gene SLC1A5
  Fold change (miR-429 transfected HEY cells relative to negative controls): −3.01
HEY cells [1]; gene SLC7A11
  Fold change (miR-429 transfected HEY cells relative to negative controls): −5.46
HEY cells [1]; gene SLC24A3
  Fold change (miR-429 transfected HEY cells relative to negative controls): −10.20
HEY cells [1]; gene SLC27A4
  Fold change (miR-429 transfected HEY cells relative to negative controls): −6.23
HEY cells [1]; gene SNORA68
  Fold change (miR-429 transfected HEY cells relative to negative controls): −14.52
HEY cells [1]; gene SRCAP
  Fold change (miR-429 transfected HEY cells relative to negative controls): −2.43
HEY cells [1]; gene STARD13
  Fold-change: −1.78
HEY cells [1]; gene SYF2
  Fold change (miR-429 transfected HEY cells relative to negative controls): −12.64
HEY cells [1]; gene SYT11
  Fold change (miR-429 transfected HEY cells relative to negative controls): −2.66
HEY cells [1]; gene TIGD1
  Fold-change: −2.38
HEY cells [1]; gene TLR1
  Fold change (miR-429 transfected HEY cells relative to negative controls): −15.24
HEY cells [1]; gene TMEM156
  Fold change (miR-429 transfected HEY cells relative to negative controls): −2.79
HEY cells [1]; gene TMEM201
  Fold change (miR-429 transfected HEY cells relative to negative controls): −5.58
HEY cells [1]; gene TSGA14
  Fold-change: −2.33
HEY cells [1]; gene TSPAN13 (epithelial marker)
  change in expression by microarray: up-regulated
HEY cells [1]; gene WDR43
  Fold-change: −1.88
HEY cells [1]; gene YARS
  Fold change (miR-429 transfected HEY cells relative to negative controls): −2.45
HEY cells [1]; gene ZBTB24
  Fold-change: −1.87
HEY cells [1]; gene ZEB2
  change in expression by microarray: did not display a significant change in expression
HEY cells [1]; gene ZNF30
  Fold change (miR-429 transfected HEY cells relative to negative controls): −2.62
HEY cells [1]; gene ZNF697
  Fold-change: −1.91
HEY cells [1]; gene hCG_1654703
  Fold change (miR-429 transfected HEY cells relative to negative controls): −7.46
HEY cells [1]; [3]
  number of genes significantly down regulated: 296 genes
  number of genes significantly up regulated: 373 genes
HEY cells [1]; miR-429 transfected cells vs negative control
  number of genes displaying significant changes in expression: 669 genes
HEY cells [2]
  decrease in invasion relative to controls: > 5 fold

Source: US8895509B2, “MIR-200 family induces mesenchymal-to-epithelial transition (MET) in ovarian cancer cells” (Georgia Tech Research Corporation, priority 2010, dated 2014)
